Laboratory results: patent US6902881B2, “Compounds and methods for regulating cell differentiation” (priority 2000, dated 2005)

How the values were obtained:
B-lymphoblast (LB) cells = assay: Proliferation of B-lymphoblast cells; format: cell-based, mouse
HT 29 Cancer Cells = assay: Distribution of cell cycle stages of HT 29 cancer cells; format: cell-based, human
Description: The presence of the CDK-inhibitors leads to under phosphorylation of Rb protein. As a consequence, the cells are removed from cycling and the number of cells in G1 increases while those in S and G2 decrease, compared with control, untreated ones. This response of cell cycle kinetics is quite similar to those reported for other agents known to cause a G1, block e.g. troglitazone. Ultimately, proliferation ceases within one to three days. […] This decreased rate persists even after the tetrapyrrole is no longer added to the incubation medium. Finally, twelve days after its removal, proliferation resumes at a brisker rate dividing every 41 hrs. This rate is still slower than that of the control cells that double every 18 hrs. […] In contrast, cellular survival or proliferation is not affected by amounts lower than 10^−7 M biliverdin (not shown).

[1] = tested on: CEA content of HT 29 colon cancer cells; assay: CEA production by HT 29 cells (ELISA/IMx); format: cell-based, human
Description: Expression of differentiation markers. Carcinoembryogenic antigen in cell supernatants collected each three days was assayed by standard ELISA determinations using an IMX assay for quantitative measurement of the antigen. Cellular triacyl glycerol content was measured spectrophotometrically by enzymatic hydrolysis and analysis of the amount of glycerol released using a standard assay, Triglyceride (INT) 10 (Sigma Diagnostics). Cellular alkaline phosphatase activity was determined by measuring the fluorescence change induced by the hydrolysis of 4-methylumbelliferylphosphate. The fluorescence is detected at 450 nm with an excitation of 365 nm, using a Jobin Ivon-Spex Fluoro Max-2 fluorimeter. The alkaline phosphatase activity detected was expressed in units of μmol/mg protein/min.
The effects of biliverdine on cell proliferation and production of two differentiation markers, CEA and alkaline phosphatase activity, were analyzed, CEA was assayed by standard ELISA determinations while alkaline phosphatase activity was determined by measuring the fluorescence change induced by the hydrolysis of phosphate from 4-methylumbelliferylphosphate as follows. To measure CEA production, cell supernatants were collected at the first cycle of change of media (third day) and on day 12. […] This was diluted 1:1 and assayed for CEA using an Imx assay for quantitive measurement of the antigen. […]

[2] = tested on: Normal Fibroblast (3T3-L1 fibroblasts); assay: Cellular triacyl glycerol (TAG) content, normal fibroblast; format: cell-based; details: 3T3-L1 fibroblasts with insulin
Description: Expression of differentiation markers. Carcinoembryogenic antigen in cell supernatants collected each three days was assayed by standard ELISA determinations using an IMX assay for quantitative measurement of the antigen. Cellular triacyl glycerol content was measured spectrophotometrically by enzymatic hydrolysis and analysis of the amount of glycerol released using a standard assay, Triglyceride (INT) 10 (Sigma Diagnostics). […] The fluorescence is detected at 450 nm with an excitation of 365 nm, using a Jobin Ivon-Spex Fluoro Max-2 fluorimeter. The alkaline phosphatase activity detected was expressed in units of μmol/mg protein/min. These compounds also affect the timing for the fat accumulation. After 9 days of incubation with insulin and bovine pituitary extract, but without biliverdin, the fat droplets in the cells are small and scattered diffusely throughout the cell. These globules continue to enlarge to fill most of the cytoplasmic space by day 14. In contrast, by day 7 the cells incubated in the presence of biliverdin already contain large, grouped and prominent droplets. While the triacyl glycerol content increases in both HT 29 and liposarcoma cells, the fat droplets in HT 29 cells are smaller than those that fill the cytoplasm of the liposarcoma cells. 3T3-L1 fibroblasts differentiate into adipocytes in the presence of insulin (Table VII). In the absence of biliverdin, this hormone increases the triacylglycerol content of 3T3-L1 fibroblasts by 3-fold relative to control. When biliverdin is added, a progressively greater content of triacyl glycerol is achieved at day 9. The increase is dependent on the biliverdin concentration. At the highest concentration used, 4×10^−7 M, there is a 5.8-fold increase of triacyl glycerol content over that of the undifferentiated fibroblasts (Table VII). This almost doubles the amount in the cells incubated with differentiation medium alone and is nearly as high as observed with troglitazone. At a lower biliverdin concentration, 10^−8 M, there is a 3.5-fold increase compared to control values. Remarkably, the amounts of biliverdin required to achieve the effects on proliferation, cell cycle and differentiation marker up-regulation, i.e. 10^−7-10^−06 M, are the same as those needed to re-establish the capacity of embryos depleted of the tetrapyrrole by treatment with UV-light to form a dorsal axis.

[3] = tested on: UV-irradiated Xenopus laevis stage 1 embryos; assay: Rescue of dorsal axis formation in UV-irradiated embryos, scored by dorsal anterior index (DAI); format: in vivo
Description: Several hundred spawned eggs were fertilized in vitro and incubated at 16 to 18° C. […] The vegetal surfaces of some of these embryos were irradiated with one or the other sources of UV light within 10 min of fertilization for 20-30 min. […] The embryos were not disturbed, touched or tipped from the moment of fertilization, during UV irradiation or for the duration of development. […] A score of 5 defines a normal dorsal axis, 4 a microcephalic, 3 a cyclopic, 2 an anoptic, 1 an acephalic and 0 an adorsal embryo.
The biological activities of biliverdin and its derivatives were tested by adding each of them to the incubation solution of embryos after the termination of the UV light exposure to either 254 or 366 nm UV light and at selected time periods between T ƒfm=0.4-2.5. Final concentrations of biliverdin ranged from 0.05 to 5 μM in less than 1% ethanol. […] An extinction coefficient of 51,000 was utilized to calculate their concentrations. All petri dishes were covered with aluminum foil to avoid light exposure. The extent of dorsal axis formation was analyzed by the morphological criteria described above.
Stage 1 embryos were exposed to UV-light source emitting at 366 nm (Mineralight UVSL-58, Ultraviolet Products, Inc., San Gabriel, Calif.) as described and then incubated in the presence of pure candidate DCD or commercially available biliverdin (Sigma-Aldrich, St. Louis, Mo.) at final concentrations from 0.05 to 1.2 μM in less than 1% ethanol. The concentrations were calculated using a molar extinction coefficient of 51,000. One group of embryos was not exposed to UV light but was incubated in the presence of 0.5 μM of candidate DCD.

[4] = UV exposed embryos incubated with the intact tetrapyrrole

C=CC1=C(C)/C(=C/C2=NC(=C\c3[nH]c(/C=C4\NC(=O)C(C)=C4C=C)c(C)c3CCC(=O)O)/C(CCC(=O)O)=C2C)NC1=O [Biliverdin, biliverdin IXα]
time until proliferation ceases (B-lymphoblast (LB) cells): within one day | time until cell division resumes at nearly the control rate (B-lymphoblast (LB) cells; still exposed): 3 to 4 days | cells in G2 (HT 29 Cancer Cells; control 11): 7% | cells in G1 (HT 29 Cancer Cells; control 42): 63% | cells in S (HT 29 Cancer Cells; control 47): 30% | CEA secreted into the medium ([1]; HT 29, by days 9-12 of exposure, constitutive slightly below 3): over 80 ng/ml/10^6 cells | overproduction of the differentiation marker CEA ([1]; HT 29, quiescent proliferative period days 3-40): > 25 fold | increase of triacyl glycerol content over undifferentiated fibroblasts ([2]; biliverdin 4×10^−7 M, day 9): 5.8 fold | increase of triacyl glycerol content compared to control values ([2]; biliverdin 10^−8 M): 3.5 fold | embryos scored with a DAI between 5-4 ([3]; 254 nm UV light, treated with biliverdin): About 51% | concentration at which plateau of recovery is reached ([3]; 254 or 366 nm UV light, FIG. 3C): 1.2 µM | recovery of dorsal axial structures ([3]; 254 or 366 nm UV-irradiated embryos, μM amounts): recover to form dorsal axial structures | embryos that recover and are scored with 4-5 ([3]; 366 nm UV light, incubated with biliverdin): ~55% | embryos that do not develop dorsal structures, DAI of 0 [3, 4]: 20 to 30% | tadpoles that develop with DAI scores of 5 or 4 [3, 4]: About 55% | degree of recovery of dorsal axis formation relative to oocyte biliverdin ([3]; UV-irradiated embryos, FIG. 2E): comparable | Average DAI score ([3]; embryos irradiated with 254 nm UV light, treated with biliverdin, DAI 5 normal, 0 adorsal): 2.72 | Average DAI score ([3]; embryos irradiated with 366 nm UV light, incubated with biliverdin, total population): 3.08
